Results from ChEMBL document CHEMBL5579838, “Design, synthesis and antitumor activity of a novel FGFR2-selective degrader to overcome resistance of the FGFR2V564F gatekeeper mutation based on a pan-FGFR inhibitor” (Eur J Med Chem, 2024).
The source made the active and inactive calls. No cut-off for these calls is given here.

Tests used:
[1] = molecular target: von Hippel-Lindau disease tumor suppressor/Fibroblast growth factor receptor 2 (Homo sapiens, UniProt P21802+P40337); test: PROTAC activity at VHL/FGFR2 in human KATO III cells assessed as induction of FGFR2 degradation incubated for 24 hrs by Western blot analysis; format: cell-based; details: kato iii stomach cancer cell line
AN3-CA [2] = test: cells; details: Homo sapiens, 72 h
Description: Antiproliferative activity against human AN3-CA cells overexpressing FGFR2 measured after 72 hrs by MTT assay

BaF3 [3] = test: Antiproliferative activity against mouse BaF3 cells stably expressing wild type ETV6-FGFR2 fusion protein incubated for 72 hrs by CCK-8 assay; format: functional, cell-based; details: BaF3, 72 h
[4] = molecular target: T1, Fibroblast growth factor receptor 1 (Homo sapiens, UniProt P11362); test: Induction of FGFR1 degradation in human BXPC-3 cells assessed as reduction in FGFR1 level at 300 nM measured after 24 hrs by Western blot analysis relative to control; format: cell-based; set-up: scale not given: the % may be the effect or the level left
[5] = tested on: KATO III stomach cancer cell line; test: Inhibition of PLC-gamma autophosphorylation in human KATO III cells at 1 to 10 nM measured after 24 hrs by Western blot analysis; format: cell-based; details: dose 1-10 nM
[6] = molecular target: T2, Fibroblast growth factor receptor 3 (Homo sapiens, UniProt P22607); test: Induction of FGFR3 degradation in human MCF7 cells assessed as reduction in FGFR3 level measured after 24 hrs by Western blot analysis; format: cell-based
Target sequence in this assay (P22607 whole entry): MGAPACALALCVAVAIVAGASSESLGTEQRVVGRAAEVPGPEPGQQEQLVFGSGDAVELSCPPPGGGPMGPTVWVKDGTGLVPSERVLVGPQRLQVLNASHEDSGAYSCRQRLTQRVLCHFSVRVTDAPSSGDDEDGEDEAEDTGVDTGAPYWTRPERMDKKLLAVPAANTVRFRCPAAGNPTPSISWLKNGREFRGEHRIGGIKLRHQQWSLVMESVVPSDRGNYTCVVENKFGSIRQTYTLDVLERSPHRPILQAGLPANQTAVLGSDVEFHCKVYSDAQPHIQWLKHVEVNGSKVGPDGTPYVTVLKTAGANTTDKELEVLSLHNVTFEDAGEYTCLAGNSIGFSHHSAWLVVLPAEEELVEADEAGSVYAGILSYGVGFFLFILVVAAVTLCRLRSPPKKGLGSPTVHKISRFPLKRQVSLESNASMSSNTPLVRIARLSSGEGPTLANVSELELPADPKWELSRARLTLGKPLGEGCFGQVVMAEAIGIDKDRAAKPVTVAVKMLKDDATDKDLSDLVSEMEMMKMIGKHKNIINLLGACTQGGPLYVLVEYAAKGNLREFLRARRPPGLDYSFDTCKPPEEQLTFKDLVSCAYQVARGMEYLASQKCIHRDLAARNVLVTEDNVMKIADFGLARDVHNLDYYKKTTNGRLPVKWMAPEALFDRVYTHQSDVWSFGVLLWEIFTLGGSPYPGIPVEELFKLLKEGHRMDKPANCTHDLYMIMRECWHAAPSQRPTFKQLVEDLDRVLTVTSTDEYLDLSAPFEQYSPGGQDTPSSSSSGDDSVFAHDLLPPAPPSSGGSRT

cells = details: Homo sapiens, Huh-7, 72 h
HCT-116 = test: cells; details: Homo sapiens, HCT-116, 72 h
NCI-H1975 = test: cells; details: Homo sapiens, NCI-H1975, 72 h
BaF3 [7] = test: Antiproliferative activity against mouse BaF3 cells stably expressing wild type ETV6-FGFR4 fusion protein incubated for 72 hrs by CCK-8 assay; format: functional, cell-based; details: BaF3, 72 h
[8] = molecular target: T1, Fibroblast growth factor receptor 1; test: Induction of FGFR1 degradation in human BXPC-3 cells assessed as reduction in FGFR1 level measured after 24 hrs by Western blot analysis; format: cell-based
Target sequence in this assay (P11362 whole entry): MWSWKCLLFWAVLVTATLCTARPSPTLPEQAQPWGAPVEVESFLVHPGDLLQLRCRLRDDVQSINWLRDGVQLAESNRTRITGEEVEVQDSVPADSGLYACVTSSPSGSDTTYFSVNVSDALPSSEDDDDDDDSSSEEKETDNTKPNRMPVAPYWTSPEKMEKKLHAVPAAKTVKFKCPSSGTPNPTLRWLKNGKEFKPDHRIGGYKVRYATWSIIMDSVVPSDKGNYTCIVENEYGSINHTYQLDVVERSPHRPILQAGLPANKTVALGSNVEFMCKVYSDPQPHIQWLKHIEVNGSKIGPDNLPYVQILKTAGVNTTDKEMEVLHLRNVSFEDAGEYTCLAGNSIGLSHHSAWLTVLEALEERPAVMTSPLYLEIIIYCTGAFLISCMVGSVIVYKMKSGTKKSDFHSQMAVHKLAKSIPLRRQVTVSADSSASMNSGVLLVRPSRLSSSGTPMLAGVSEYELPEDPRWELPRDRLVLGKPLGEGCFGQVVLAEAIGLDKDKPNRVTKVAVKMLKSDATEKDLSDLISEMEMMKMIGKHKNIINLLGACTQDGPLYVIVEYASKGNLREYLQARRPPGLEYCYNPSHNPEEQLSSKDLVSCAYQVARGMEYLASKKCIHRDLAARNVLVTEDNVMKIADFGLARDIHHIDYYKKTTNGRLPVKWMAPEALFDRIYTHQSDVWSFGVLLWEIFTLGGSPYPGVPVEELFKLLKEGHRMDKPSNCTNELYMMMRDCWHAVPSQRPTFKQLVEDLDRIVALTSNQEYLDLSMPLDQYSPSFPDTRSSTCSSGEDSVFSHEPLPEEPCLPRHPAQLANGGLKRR

[9] = tested on: KATO III stomach cancer cell line; test: Induction of cell cycle arrest at G0/G1 phase in FGFR2 amplified human KATO III cells assessed as inhibition of CDK4 protein expression at 0.1 to 10 nM by Western blot analysis; format: functional, cell-based; details: dose 0.1-10 nM
[10] = AUC (0 to t) in overnight fasted mouse at 10 mg/kg, po administered as single dose by LC-MS/MS analysis; format: ADME, organism-based; details: in vivo
[11] = molecular target: T2, Fibroblast growth factor receptor 3
Target sequence in this assay (P22607 whole entry): as the sequence (P22607 whole entry) above
Description: Inhibition of FGFR3 (unknown origin)

[12] = tested on: KATO III stomach cancer cell line; test: Induction of cell cycle arrest at G0/G1 phase in FGFR2 amplified human KATO III cells at 0.1 to 10 nM incubated for 24 hrs by PI staining based flow cytometry analysis; format: functional; details: dose 0.1-10 nM
[13] = molecular target: T3, Fibroblast growth factor receptor 4 (Homo sapiens, UniProt P22455); test: Induction of FGFR4 degradation in human Huh-7 cells assessed as reduction in FGFR4 level at 0 to 300 nM measured after 24 hrs by Western blot analysis; format: cell-based; details: dose 0-300 nM
[14] = Cmax in overnight fasted mouse at 10 mg/kg, po administered as single dose by LC-MS/MS analysis; format: ADME, organism-based; details: in vivo
[15] = molecular target: T2, Fibroblast growth factor receptor 3; test: Induction of FGFR3 degradation in human MCF7 cells assessed as reduction in FGFR3 level at 0 to 300 nM measured after 24 hrs by Western blot analysis; format: cell-based; details: dose 0-300 nM
Target sequence in this assay (P22607 23-806 limits assumed): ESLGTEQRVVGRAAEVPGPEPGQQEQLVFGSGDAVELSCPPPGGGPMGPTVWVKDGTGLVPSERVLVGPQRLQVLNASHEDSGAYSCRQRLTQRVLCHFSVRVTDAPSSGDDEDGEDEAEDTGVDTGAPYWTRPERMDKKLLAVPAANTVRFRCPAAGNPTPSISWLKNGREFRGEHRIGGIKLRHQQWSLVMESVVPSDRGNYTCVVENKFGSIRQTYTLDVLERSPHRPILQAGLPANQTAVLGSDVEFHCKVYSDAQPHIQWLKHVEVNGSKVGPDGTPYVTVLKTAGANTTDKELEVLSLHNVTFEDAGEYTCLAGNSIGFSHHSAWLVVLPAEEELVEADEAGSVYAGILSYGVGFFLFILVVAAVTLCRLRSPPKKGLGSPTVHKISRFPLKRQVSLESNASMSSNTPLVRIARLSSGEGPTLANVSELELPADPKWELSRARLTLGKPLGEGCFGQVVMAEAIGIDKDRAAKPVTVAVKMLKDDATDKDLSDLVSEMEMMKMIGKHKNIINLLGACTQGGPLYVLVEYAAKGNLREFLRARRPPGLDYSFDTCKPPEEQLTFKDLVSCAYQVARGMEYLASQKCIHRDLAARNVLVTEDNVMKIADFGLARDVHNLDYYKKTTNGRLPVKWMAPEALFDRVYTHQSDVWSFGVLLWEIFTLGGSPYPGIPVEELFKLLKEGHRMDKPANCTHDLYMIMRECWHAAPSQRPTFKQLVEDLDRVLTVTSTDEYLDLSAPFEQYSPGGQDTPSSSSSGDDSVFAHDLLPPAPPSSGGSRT

[16] = AUC (0 to t) in overnight fasted mouse at 1 mg/kg, iv administered as single dose by LC-MS/MS analysis; format: ADME, organism-based; details: in vivo
[17] = molecular target: T4, Fibroblast growth factor receptor substrate 2 (Homo sapiens) (UniProt Q8WU20); test: Inhibition of FRS2 autophosphorylation in human KATO III cells at 1 to 10 nM measured after 24 hrs by Western blot analysis; format: cell-based; details: KATO III stomach cancer cell line, dose 1-10 nM
T4 sequence (whole entry): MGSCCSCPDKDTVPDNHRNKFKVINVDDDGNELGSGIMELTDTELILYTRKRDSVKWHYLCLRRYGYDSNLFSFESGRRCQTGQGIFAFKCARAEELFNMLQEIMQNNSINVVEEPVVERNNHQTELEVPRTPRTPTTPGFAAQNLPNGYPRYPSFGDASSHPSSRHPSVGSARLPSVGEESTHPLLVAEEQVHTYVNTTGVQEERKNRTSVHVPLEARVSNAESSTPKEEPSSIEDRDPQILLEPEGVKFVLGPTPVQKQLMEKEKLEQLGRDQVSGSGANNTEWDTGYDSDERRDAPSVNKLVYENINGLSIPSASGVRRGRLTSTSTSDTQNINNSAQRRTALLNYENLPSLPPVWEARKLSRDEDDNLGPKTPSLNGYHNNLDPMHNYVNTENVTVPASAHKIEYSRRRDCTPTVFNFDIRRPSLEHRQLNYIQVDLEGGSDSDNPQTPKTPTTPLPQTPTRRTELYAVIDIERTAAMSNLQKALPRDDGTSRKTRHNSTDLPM

in vitro [18] = details: human, L02 cells
SNU-16 = test: cells; details: Homo sapiens, SNU-16, 72 h
Description: Antiproliferative activity against FGFR2 amplified human SNU-16 cells measured after 72 hrs by MTT assay

[19] = molecular target: T3, Fibroblast growth factor receptor 4
Target sequence in this assay (P22455 whole entry): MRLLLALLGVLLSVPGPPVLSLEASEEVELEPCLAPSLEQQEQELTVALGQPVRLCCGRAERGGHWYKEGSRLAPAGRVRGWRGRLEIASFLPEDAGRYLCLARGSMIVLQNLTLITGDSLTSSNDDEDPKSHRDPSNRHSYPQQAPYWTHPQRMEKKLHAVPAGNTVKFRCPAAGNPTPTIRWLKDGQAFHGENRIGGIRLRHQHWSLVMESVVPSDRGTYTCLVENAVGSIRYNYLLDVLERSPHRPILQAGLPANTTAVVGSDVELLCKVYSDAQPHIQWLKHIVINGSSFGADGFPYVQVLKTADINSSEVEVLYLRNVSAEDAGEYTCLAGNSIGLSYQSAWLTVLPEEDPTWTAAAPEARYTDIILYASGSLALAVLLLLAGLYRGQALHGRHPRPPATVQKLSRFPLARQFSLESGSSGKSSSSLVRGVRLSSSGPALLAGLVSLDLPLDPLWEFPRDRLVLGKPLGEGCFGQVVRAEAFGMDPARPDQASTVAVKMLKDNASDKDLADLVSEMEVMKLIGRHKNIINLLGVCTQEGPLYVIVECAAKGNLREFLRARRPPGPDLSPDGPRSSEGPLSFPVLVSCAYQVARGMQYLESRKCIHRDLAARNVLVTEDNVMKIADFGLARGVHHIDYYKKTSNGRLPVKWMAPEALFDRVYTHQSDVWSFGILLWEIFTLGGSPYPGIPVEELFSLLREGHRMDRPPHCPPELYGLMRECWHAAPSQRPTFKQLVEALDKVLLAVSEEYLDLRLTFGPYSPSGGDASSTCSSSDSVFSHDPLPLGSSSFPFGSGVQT
Description: Inhibition of FGFR4 (unknown origin)

[20] = Half life in overnight fasted mouse at 1 mg/kg, iv administered as single dose by LC-MS/MS analysis; format: ADME, organism-based; details: in vivo
[21] = Half life in overnight fasted mouse at 10 mg/kg, po administered as single dose by LC-MS/MS analysis; format: ADME, organism-based; details: in vivo
BXPC-3 = test: cells; details: Homo sapiens, BXPC-3, 72 h
[22] = molecular target: T1, Fibroblast growth factor receptor 1
Target sequence in this assay (P11362 whole entry): as the sequence (P11362 whole entry) above
Description: Inhibition of FGFR1 (unknown origin)

AN3-CA [23] = test: Inhibition of cell migration in adherent human AN3-CA cells overexpressing FGFR2 assessed as inhibition of lateral migration at 10 nM incubated for 48 hrs by wound healing assay relative to control; format: functional
[24] = tested on: KATO III stomach cancer cell line; test: Induction of cell cycle arrest at G0/G1 phase in FGFR2 amplified human KATO III cells assessed as inhibition of CDK6 protein expression at 0.1 to 10 nM by Western blot analysis; format: functional, cell-based; details: dose 0.1-10 nM
[25] = molecular target: Vascular endothelial growth factor receptor 2 (Homo sapiens) (UniProt P35968); test: Induction of VEGFR2 (unknown origin) degradation
Chain of Vascular endothelial growth factor receptor 2 (Homo sapiens) (P35968 whole entry): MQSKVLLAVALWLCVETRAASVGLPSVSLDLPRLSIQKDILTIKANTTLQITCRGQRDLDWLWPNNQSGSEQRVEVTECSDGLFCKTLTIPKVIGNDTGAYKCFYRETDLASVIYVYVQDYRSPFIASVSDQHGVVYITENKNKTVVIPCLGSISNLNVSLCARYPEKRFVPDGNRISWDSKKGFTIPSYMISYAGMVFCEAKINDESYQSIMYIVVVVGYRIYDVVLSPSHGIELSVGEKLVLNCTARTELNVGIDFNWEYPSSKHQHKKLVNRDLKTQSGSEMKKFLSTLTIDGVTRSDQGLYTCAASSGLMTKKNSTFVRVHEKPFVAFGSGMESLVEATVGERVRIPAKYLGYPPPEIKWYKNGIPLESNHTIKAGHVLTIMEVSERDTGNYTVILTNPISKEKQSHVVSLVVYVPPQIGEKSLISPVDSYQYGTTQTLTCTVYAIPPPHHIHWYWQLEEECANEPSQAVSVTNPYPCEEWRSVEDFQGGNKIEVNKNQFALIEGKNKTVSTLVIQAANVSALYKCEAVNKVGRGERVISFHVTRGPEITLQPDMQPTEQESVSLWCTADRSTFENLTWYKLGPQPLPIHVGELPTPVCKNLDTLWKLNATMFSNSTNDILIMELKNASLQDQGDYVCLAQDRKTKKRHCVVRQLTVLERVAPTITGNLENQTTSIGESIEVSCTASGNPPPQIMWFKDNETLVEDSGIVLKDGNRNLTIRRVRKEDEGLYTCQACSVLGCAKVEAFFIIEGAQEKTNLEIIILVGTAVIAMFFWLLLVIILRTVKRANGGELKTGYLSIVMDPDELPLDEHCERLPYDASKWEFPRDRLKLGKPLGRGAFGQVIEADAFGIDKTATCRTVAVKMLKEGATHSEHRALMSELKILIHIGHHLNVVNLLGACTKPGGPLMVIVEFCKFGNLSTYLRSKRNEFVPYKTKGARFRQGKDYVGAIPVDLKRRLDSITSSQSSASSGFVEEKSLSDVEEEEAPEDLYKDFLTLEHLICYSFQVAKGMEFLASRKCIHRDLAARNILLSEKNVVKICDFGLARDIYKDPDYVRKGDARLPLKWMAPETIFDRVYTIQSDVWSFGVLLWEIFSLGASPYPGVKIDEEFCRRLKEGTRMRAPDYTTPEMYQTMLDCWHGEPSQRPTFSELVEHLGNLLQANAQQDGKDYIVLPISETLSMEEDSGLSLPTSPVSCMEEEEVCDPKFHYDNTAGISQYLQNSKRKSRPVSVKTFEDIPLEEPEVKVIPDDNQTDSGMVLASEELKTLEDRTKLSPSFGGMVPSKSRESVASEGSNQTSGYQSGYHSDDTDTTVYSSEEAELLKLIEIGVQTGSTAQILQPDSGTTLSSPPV

[26] = Cmax in overnight fasted mouse at 1 mg/kg, iv administered as single dose by LC-MS/MS analysis; format: ADME, organism-based; details: in vivo
in vitro [27] = details: human, HEK293T cells
BaF3 [28] = test: Antiproliferative activity against mouse BaF3 cells stably expressing wild type ETV6-FGFR3 fusion protein incubated for 72 hrs by CCK-8 assay; format: functional, cell-based; details: BaF3, 72 h
[29] = tested on: KATO III stomach cancer cell line; test: Induction of cell cycle arrest at G0/G1 phase in FGFR2 amplified human KATO III cells assessed as inhibition of cyclin D1 protein expression at 0.1 to 10 nM by Western blot analysis; format: functional, cell-based; details: dose 0.1-10 nM
[30] = tested on: KATO III stomach cancer cell line; test: cells; details: Homo sapiens, 72 h
Description: Antiproliferative activity against FGFR2 amplified human KATO III cells measured after 3 days by MTT assay

[31] = molecular target: T3, Fibroblast growth factor receptor 4; test: Induction of FGFR4 degradation in human Huh-7 cells assessed as reduction in FGFR4 level measured after 24 hrs by Western blot analysis; format: cell-based
Target sequence in this assay (P22455 whole entry): as the sequence (P22455 whole entry) above

A2780 = test: cells; details: Homo sapiens, A2780, 72 h
MCF7 = test: cells; details: Homo sapiens, MCF7, 72 h
SNU-449 = test: cells; details: Homo sapiens, SNU-449, 72 h
BaF3 [32] = test: Antiproliferative activity against mouse BaF3 cells stably expressing wild type ETV6-FGFR1 fusion protein incubated for 72 hrs by CCK-8 assay; format: functional, cell-based; details: BaF3, 72 h
[33] = Oral bioavailability in overnight fasted mouse at 10 mg/kg administered as single dose by LC-MS/MS analysis; format: ADME, organism-based; details: in vivo
MDA-MB-231 = test: cells; details: Homo sapiens, MDA-MB-231, 72 h
[34] = Tmax in overnight fasted mouse at 10 mg/kg, po administered as single dose by LC-MS/MS analysis; format: ADME, organism-based; details: in vivo

Compound: COc1cc(OC)c(Cl)c(NC(=O)N(C)c2cc(Nc3ccc(N4CCN(CC(=O)N[C@H](C(=O)N5C[C@H](O)C[C@H]5C(=O)N[C@@H](C)c5ccc(-c6scnc6C)cc5)C(C)(C)C)CC4)cc3)ncn2)c1Cl
- DC50 [1]: 70 nM

Compound: C[C@@H](Oc1ccc2[nH]nc(/C=C/c3cnn(CCNC(=O)CCCCCNc4ccc5c(c4)C(=O)N(C4CCC(=O)NC4=O)C5=O)c3)c2c1)c1c(Cl)cncc1Cl (stereo partly drawn)
- IC50 (AN3-CA [2]): 4.63 nM
- IC50 (BaF3 [3]): 0.91 nM
- Activity [4]: 30%
- inhibition [5]: Active
- DC50 [6]: > 300 nM
- IC50 (cells): > 5000 nM
- IC50 (HCT-116): 1910 nM
- IC50 (NCI-H1975): 2240 nM
- IC50 (BaF3 [7]): 32.7 nM
- DC50 [8]: > 300 nM
- Activity [9]: Active
- AUC(0-t) [10]: 9.61 ng·h/mL
- IC50 [11]: 1.26 nM
- Activity [12]: Active
- Activity [13]: inactive
- Cmax [14]: 19.4 ng/mL
- Activity [15]: inactive
- AUC(0-t) [16]: 151 ng·h/mL
- inhibition [17]: Active
- IC50 at 72 h (in vitro [18]): > 5000 nM
- IC50 (SNU-16): 0.207 nM
- IC50 [19]: 15.1 nM
- half-life [20]: 4.14 min
- half-life [21]: 45 min
- IC50 (BXPC-3): 997 nM
- IC50 [22]: 1.47 nM
- inhibition at 0.01 µM (AN3-CA [23]): > 15%
- Activity [24]: Active
- Activity [25]: inactive
- Cmax [26]: 1940 ng/mL
- IC50 at 72 h (in vitro [27]): 2140 nM
- IC50 (BaF3 [28]): 0.2 nM
- Activity [29]: Active
- IC50 [30]: 0.79 nM
- DC50 [31]: > 300 nM
- IC50 (A2780): 627 nM
- IC50 (MCF7): 2980 nM
- IC50 (SNU-449): 923 nM
- IC50 (BaF3 [32]): 27.5 nM
- bioavailability [33]: 0.64%
- IC50 (MDA-MB-231): 2520 nM
- Tmax [34]: 30 min
